The target of experiment [1] is Lck (Homo sapiens, UniProt P06239). Kind of experiment: Lck 33P kinase assay. The class given is biochemical. The note with it: read-out: Lck activity as percentage of control without inhibitor; for remaining activity at 1 µM: inhibitor 1 μM. The procedure: Assays were performed for 30 minutes except assays for LCK and PKB which were performed for 15 minutes using Multidrop Micro reagent dispensers (Thermo Electron Corporation, Waltham, Mass. 02454, USA) in a 96-well format. The concentration of […] [γ-^33P] ATP (800 cpm/pmol) in the assays was one of three concentrations (5, 20 or 50 μM) in order to be at or below Km for ATP for the enzyme. Assays were initiated with MgATP and stopped by addition of 5 μl of 0.5M orthophosphoric acid. Assays were then harvested onto P81 filterplates using a unifilter harvester (PerkinElmer, Boston, Mass. 02118, USA), with a wash buffer of 50 mM orthophosphoric acid. Filterplates were then air dried overnight. 10 μl of Microscint O was added per well prior to counting for radioactivity.
Sequence of Lck (P06239 whole entry, species assumed): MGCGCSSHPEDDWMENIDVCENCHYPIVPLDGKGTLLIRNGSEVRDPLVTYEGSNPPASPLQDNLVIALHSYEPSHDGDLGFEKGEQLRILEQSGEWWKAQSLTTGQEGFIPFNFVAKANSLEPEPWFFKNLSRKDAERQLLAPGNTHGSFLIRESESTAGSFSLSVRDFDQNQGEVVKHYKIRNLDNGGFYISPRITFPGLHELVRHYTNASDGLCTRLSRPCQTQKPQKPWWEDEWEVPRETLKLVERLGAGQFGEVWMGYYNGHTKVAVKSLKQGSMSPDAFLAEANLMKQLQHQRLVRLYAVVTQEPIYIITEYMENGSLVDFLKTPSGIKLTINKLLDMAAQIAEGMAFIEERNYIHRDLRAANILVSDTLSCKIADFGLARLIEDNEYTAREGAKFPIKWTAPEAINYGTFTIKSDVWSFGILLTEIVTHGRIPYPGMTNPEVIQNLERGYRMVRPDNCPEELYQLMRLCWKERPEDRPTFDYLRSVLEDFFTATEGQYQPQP
(§1) MKK1, JNK/SAPK1c, SAPK2a/p38, SAPK2b/p38β2, SAPK3/p38γ, SAPK4/p38δ, MAPK2/ERK2, MAPKAP-K1β, MAPKAP-K2, MSK1, PRAK, PKA, PKCα, PDK1, SGK, p70S6K, GSK3β, ROCK-II, PRK2, AMPK, CHK1, CHK2, CK2, PHK, LCK, were assayed according to Davies et al., (Davies, S. P., Reddy, H., Caivano, M. and Cohen, P. Biochem. J. 351, 95-105, 2000.
(§2) CSK and CDK2/cyclinA, were assayed according to Bain et al. (Bain J, McLauchlan H, Elliott M, Cohen P. Biochem J. 371, 199-204, 2003., except that ATP concentrations were either 5, 20 or 50 micromolar so that they were at or below the Km for ATP. The ATP concentrations used were as follows, 5 μM for assays of MKK1, SAPK3, SAPK4, GSK3β, PRK2 CK2 20 μm for assays of JNK, SAPK2β, MAPKAP-K2, MSK1, PRAK, PKA, […], PDK1, SGK, p70S6K, ROCK-II, CHK1, CHK2, CSK, CDK2, and 50 μM for assays of SAPK2a, MAPK2/ERK2, AMPK, LCK, PHK and MAPKAP-K1β.

For experiment [2], the target named is CSK (Homo sapiens, UniProt P41240). Kind of experiment: CSK 33P kinase assay. Format: biochemical. To be noted: read-out: CSK activity as percentage of control without inhibitor. The procedure: (§3) All assays (25.5 μl) were carried out at room temperature (21° C.) and were linear with respect to time and enzyme concentrations under the conditions used. Assays were performed for 30 minutes except assays for LCK and PKB which were performed for 15 minutes using Multidrop Micro reagent dispensers (Thermo Electron Corporation, Waltham, Mass. 02454, USA) in a 96-well format. The concentration of […] [γ-^33P] ATP (800 cpm/pmol) in the assays was one of three concentrations (5, 20 or 50 μM) in order to be at or below Km for ATP for the enzyme. Assays were initiated with MgATP and stopped by addition of 5 μl of 0.5M orthophosphoric acid. Assays were then harvested onto P81 filterplates using a unifilter harvester (PerkinElmer, Boston, Mass. 02118, USA), with a wash buffer of 50 mM orthophosphoric acid. Filterplates were then air dried overnight. 10 μl of Microscint O was added per well prior to counting for radioactivity.
Sequence of CSK (P41240 whole entry, species assumed): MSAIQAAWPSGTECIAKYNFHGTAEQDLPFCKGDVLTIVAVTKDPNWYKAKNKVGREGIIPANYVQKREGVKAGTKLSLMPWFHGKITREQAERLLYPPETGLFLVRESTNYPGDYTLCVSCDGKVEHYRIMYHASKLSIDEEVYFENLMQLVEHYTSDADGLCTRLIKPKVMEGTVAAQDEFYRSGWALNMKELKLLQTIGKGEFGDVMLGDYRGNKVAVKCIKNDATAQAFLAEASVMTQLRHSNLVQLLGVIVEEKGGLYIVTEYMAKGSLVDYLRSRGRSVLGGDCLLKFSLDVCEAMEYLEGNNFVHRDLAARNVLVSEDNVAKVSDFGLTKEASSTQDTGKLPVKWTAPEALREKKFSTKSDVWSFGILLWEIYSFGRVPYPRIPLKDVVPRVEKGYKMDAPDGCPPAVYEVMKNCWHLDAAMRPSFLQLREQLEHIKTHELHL
as §2

Experiment [3] has as its target NEK6 (Homo sapiens, UniProt Q9HC98). Kind of experiment: biochemical. The note with it: read-out: NEK6 activity as percentage of control without inhibitor. On the procedure:
as §3
NEK6 (5-20 mU diluted in 50 mM Tris (pH 7.5), 0.1 mM EGTA, 1 mg/ml BSA, 0.1%, β-Mercaptoethanol) is assayed against NEK6 peptide ([…]) in a final volume of 25.5 μl containing 50 mM Tris (pH 7.5), 0.1 mM EGTA, 0.01% Brij, 0.1%, β-Mercaptoethanol, NEK6 peptide (0.3 mM), 10 mM magnesium acetate and 0.05 mM [^33P- γATP](500-1000 cpm/pmole) and incubated for 30 min at room temperature.

In experiment [4] the target is MAPKAP-K2 (Homo sapiens, UniProt P49137). Description: MAPKAP-K2 33P kinase assay. Format: biochemical. To be noted: read-out: MAPKAP-K2 activity as percentage of control without inhibitor. On the procedure:
as §3, §1, §2

Experiment [5] has as its target smMLCK (Homo sapiens, UniProt Q15746). Description: smMLCK 33P kinase assay. The class given is biochemical. To be noted: read-out: smMLCK activity as percentage of control without inhibitor. The procedure:
as §3
smMLCK (5-20 mU) diluted in 50 mM Hepes pH 7.5, 0.1 mM EGTA, 1 mg.ml BSA, 0.1% β-mercaptoethanol is assayed against substrate peptide […] in an incubation containing 50 mM Hepes pH 7.5, 0.1 mM EGTA, 5 mM CaCl2, 10 μM calmodulin, 300 μM substrate peptide, 10 mM magnesium acetate and 0.05 mM [^33P-γ-ATP] (500-1000 cpm/pmole).

The test system of experiment [6] is CK1. Kind of experiment: CK1 33P kinase assay. Format: biochemical. The procedure:
as §3

Experiment [7] relates to AMPK. Kind of experiment: AMPK 33P kinase assay. The class given is biochemical. The procedure:
as §3, §1, §2

In experiment [8] the target is MAPK2/ERK2 (Homo sapiens, UniProt P28482). Kind of experiment: MAPK2/ERK2 33P kinase assay. To be noted: read-out: MAPK2/ERK2 activity as percentage of control without inhibitor. Format: biochemical. On the procedure:
as §3, §1, §2

The target of experiment [9] is MAPKAP-K1b (Homo sapiens, UniProt P51812). Description: MAPKAP-K1b 33P kinase assay. Format: biochemical. To be noted: read-out: MAPKAP-K1b activity as percentage of control without inhibitor. On the procedure: as §3, §1, §2
Sequence of MAPKAP-K1b (P51812 whole entry, species assumed): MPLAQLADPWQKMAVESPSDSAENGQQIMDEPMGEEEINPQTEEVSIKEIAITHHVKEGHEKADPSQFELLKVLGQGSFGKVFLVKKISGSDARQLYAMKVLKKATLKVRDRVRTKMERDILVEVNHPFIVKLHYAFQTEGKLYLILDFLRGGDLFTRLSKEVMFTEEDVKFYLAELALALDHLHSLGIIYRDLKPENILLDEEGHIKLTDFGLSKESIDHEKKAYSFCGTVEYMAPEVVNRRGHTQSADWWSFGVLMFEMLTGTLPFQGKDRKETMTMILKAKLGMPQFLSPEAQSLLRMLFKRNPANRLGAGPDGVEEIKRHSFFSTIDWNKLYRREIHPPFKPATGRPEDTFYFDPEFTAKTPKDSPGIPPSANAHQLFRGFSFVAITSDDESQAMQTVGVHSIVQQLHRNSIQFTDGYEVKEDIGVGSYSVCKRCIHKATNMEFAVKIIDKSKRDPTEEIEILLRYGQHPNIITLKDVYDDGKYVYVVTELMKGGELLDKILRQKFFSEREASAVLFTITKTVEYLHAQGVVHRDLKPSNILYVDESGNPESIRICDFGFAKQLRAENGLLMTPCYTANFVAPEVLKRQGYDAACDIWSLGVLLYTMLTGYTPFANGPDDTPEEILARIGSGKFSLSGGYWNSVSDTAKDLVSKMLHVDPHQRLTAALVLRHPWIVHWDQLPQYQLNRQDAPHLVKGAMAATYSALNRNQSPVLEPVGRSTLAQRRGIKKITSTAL
In experiment [10] the target is ROCK-II (Homo sapiens, UniProt O75116). Description: ROCK-II 33P kinase assay. Format: biochemical. The note with it: read-out: ROCK-II activity as percentage of control without inhibitor. On the procedure: as §3, §1, §2
Sequence of ROCK-II (O75116 whole entry, species assumed): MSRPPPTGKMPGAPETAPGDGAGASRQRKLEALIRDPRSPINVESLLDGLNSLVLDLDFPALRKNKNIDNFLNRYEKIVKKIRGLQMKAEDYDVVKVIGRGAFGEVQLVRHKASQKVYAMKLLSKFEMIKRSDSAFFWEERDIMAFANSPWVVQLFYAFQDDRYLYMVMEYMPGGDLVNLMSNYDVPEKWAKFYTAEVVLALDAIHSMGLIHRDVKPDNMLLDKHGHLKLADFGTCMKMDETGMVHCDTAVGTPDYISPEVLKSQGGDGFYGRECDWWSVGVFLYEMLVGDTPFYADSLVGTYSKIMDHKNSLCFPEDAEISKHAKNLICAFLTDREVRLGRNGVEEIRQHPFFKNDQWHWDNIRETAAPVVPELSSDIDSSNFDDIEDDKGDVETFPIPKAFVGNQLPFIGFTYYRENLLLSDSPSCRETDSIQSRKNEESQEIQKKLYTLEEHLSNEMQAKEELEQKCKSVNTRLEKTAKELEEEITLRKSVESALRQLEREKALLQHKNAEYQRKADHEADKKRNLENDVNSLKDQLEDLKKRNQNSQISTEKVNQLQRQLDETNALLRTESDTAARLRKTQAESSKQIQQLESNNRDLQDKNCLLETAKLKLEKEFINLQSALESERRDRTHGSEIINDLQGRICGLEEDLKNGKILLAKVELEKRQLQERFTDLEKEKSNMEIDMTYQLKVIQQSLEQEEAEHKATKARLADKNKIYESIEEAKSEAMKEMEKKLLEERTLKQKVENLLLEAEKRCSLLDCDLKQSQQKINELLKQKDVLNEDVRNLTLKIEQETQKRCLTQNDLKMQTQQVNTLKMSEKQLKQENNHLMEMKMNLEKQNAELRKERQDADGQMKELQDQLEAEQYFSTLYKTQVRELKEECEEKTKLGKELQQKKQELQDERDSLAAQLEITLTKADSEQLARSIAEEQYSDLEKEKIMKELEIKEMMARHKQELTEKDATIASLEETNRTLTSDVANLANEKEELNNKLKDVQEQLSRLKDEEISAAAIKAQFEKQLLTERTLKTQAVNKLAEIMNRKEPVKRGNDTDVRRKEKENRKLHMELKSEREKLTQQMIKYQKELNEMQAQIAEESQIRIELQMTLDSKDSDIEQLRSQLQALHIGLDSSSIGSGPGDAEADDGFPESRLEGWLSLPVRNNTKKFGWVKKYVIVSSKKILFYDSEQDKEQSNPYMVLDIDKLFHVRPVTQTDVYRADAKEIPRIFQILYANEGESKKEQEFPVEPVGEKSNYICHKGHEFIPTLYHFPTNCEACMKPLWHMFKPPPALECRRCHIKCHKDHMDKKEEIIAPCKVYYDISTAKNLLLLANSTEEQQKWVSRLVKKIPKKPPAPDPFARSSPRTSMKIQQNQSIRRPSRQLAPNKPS

Experimental findings from patent US20100063085A1, “METHOD OF TREATING LEARNING IMPAIRMENT IN DOWN'S SYNDROME SUBJECTS” (University Court of The University of Dundee, priority 2008, published 2010) are described below.

Read-outs that look alike come from different tables or passages of the source.

Sequence of MAPK2/ERK2 (P28482 whole entry): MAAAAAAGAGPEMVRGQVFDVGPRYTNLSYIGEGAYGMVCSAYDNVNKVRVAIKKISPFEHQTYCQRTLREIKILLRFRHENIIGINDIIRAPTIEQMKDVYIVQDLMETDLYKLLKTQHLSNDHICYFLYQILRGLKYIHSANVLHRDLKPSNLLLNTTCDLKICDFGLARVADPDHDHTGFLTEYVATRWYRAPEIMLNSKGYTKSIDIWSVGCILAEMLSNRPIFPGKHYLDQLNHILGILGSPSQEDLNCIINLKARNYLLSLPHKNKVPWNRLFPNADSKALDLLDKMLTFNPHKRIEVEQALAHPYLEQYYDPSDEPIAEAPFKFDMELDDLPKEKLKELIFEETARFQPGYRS
Sequence of MAPKAP-K2 (P49137 whole entry, species assumed): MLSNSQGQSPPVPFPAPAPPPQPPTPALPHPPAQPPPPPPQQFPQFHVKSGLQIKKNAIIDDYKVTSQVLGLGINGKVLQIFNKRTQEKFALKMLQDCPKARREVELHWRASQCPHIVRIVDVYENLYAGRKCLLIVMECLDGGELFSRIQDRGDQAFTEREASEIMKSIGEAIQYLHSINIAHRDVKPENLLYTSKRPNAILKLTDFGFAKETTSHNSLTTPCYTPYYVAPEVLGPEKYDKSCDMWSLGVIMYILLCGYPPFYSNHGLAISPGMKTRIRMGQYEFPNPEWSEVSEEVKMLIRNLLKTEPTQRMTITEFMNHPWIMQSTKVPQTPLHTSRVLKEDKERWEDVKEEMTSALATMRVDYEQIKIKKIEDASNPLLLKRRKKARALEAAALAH
Sequence of NEK6 (Q9HC98 whole entry, species assumed): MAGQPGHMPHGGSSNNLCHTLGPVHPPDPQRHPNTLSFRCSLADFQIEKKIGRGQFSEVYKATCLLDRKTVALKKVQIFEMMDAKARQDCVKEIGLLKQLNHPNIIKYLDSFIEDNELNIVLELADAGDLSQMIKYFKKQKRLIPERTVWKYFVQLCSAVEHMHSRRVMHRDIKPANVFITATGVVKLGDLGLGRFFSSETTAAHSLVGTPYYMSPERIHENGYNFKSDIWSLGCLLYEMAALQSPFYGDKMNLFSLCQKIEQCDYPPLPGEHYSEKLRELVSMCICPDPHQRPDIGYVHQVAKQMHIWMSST

For `COc1ccc2c(c1)[nH]c1c(C)nccc12` [Harmine], the remaining activity at 10 µM stood at 91% in [1]; 101% in experiment [2]; 99% in experiment [3]; 82% in experiment [4]; 76% in experiment [5]; 89% in experiment [8]. Further, the remaining activity at 10 µM in [9] came to 95%; in experiment [10] it was 61%. Moreover, the remaining activity at 1 µM in [2] turned out to be 92%; in experiment [3], 96%; in experiment [4], 78%; in experiment [5] it was 88%; in experiment [8], 98%; in experiment [9], 89%. In addition, the remaining activity at 1 µM in experiment [10] was determined as 84%. For the same molecule, the “CK1 activity as percentage of control without inhibitor” value was determined as 61% in experiment [6] (inhibitor 1 μM) and 21% in experiment [6] (inhibitor 10 μM). Moreover, the “AMPK activity as percentage of control without inhibitor” value was 98% in [7] (inhibitor 1 μM) and 103% in [7] (inhibitor 10 μM).
Take `CC1=NCCc2c1[nH]c1cc(O)ccc21` [Harmalol]: the remaining activity at 1 µM in experiment [1] was found to be 85%; in experiment [2] (inhibitor 1 μM), 110%; in [3] (inhibitor 1 μM) it was 94%; in experiment [4] (inhibitor 1 μM), 79%; in experiment [5] (inhibitor 1 μM), 76%; in experiment [8] (inhibitor 1 μM) it was 88%. Also, the results for the remaining activity at 1 µM in experiment [9] (inhibitor 1 μM) and in experiment [10] (inhibitor 1 μM) were 87% and 96%, respectively. Further, the remaining activity at 10 µM in experiment [1] (inhibitor 10 μM) came to 68%; in experiment [2] (inhibitor 10 μM), 92%; in experiment [3] (inhibitor 10 μM), 92%; in experiment [4] (inhibitor 10 μM), 69%; in [5] (inhibitor 10 μM) it was 71%; in experiment [8] (inhibitor 10 μM) it was 85%. The remaining activity at 10 µM in experiment [9] (inhibitor 10 μM) amounted to 67%; in [10] (inhibitor 10 μM), 81%. Further, the “CK1 activity as percentage of control without inhibitor” value in experiment [6] (inhibitor 1 μM) is listed as 83%; in [6] (inhibitor 10 μM), 48%. Further, the “AMPK activity as percentage of control without inhibitor” value is listed as 92% in experiment [7] (inhibitor 1 μM) and 52% in [7] (inhibitor 10 μM).
Take `COc1ccc2c3c([nH]c2c1)C(C)=NCC3` [Harmaline]: the remaining activity at 1 µM in experiment [1] was 77%; in experiment [2], 64%; in experiment [3] (inhibitor 1 μM), 99%; in experiment [4] (inhibitor 1 μM), 104%; in experiment [5] (inhibitor 1 μM), 92%; in [8] (inhibitor 1 μM), 80%. Also, the remaining activity at 1 µM in experiment [9] (inhibitor 1 μM) is 87%; in experiment [10] (inhibitor 1 μM) it was 99%. Further, the remaining activity at 10 µM is 87% in experiment [1] (inhibitor 10 μM); 90% in experiment [2]; 87% in [3] (inhibitor 10 μM); 112% in experiment [4] (inhibitor 10 μM); 104% in experiment [5] (inhibitor 10 μM); 89% in experiment [8] (inhibitor 10 μM). The remaining activity at 10 µM stood at 80% in experiment [9] (inhibitor 10 μM) and 81% in experiment [10] (inhibitor 10 μM). Moreover, the “CK1 activity as percentage of control without inhibitor” value in experiment [6] (inhibitor 1 μM) was found to be 84%; in experiment [6] (inhibitor 10 μM) it was 65%. For the same molecule, the “AMPK activity as percentage of control without inhibitor” value in experiment [7] (inhibitor 1 μM) worked out at 97%; in [7] (inhibitor 10 μM), 83%.
